Data set [1] can be described thus: Water solubility (sonicated suspension, HPLC).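 On all read-outs here: concentration in the clear supernatant quantified by HPLC peak area against a DMSO standard solution of the same compound, corrected for dilution and injection volume.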 The class given is physicochemical. The following applies: in water; for solubility at 15 min: thermodynamic from solid.
The nature of data set [2]: Stability to human liver microsomes.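 Further: parent compound quantified by LC-MS/MS against an internal standard, duplicates averaged, expressed relative to the 0 min sample taken as 100%.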 The following applies: 1 μM, 37° C., 60 min, pooled human liver microsomes. The class given is in vitro ADME. For orientation: Liver microsomes are a subcellular fraction often used to study metabolism.
A short description of data set [3]: Stability to mouse liver microsomes.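 Further: analyte quantified by LC-MS/MS as ratio to internal standard peak area, mean of duplicates, 60 min value expressed relative to the 0 min level (100%).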 The class given is in vitro ADME. To be noted: 1 μM, 37° C., 60 min, CD-1 mouse liver microsomes.
Data set [4] has as its system M. tuberculosis Erdman. Briefly: In vivo mouse acute TB infection assay. The arrangement: species or system Mycobacterium tuberculosis. The following applies: BALB/c mice; for In vivo efficacy vs PA-824, Acute: oral 100 mg/kg daily 5 days a week for 3 weeks from day 11 post-infection, ratio of average lung CFU reduction to that with PA-824.
Data set [5] is described as follows: In vivo pharmacokinetics in mice.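 On all read-outs here: plasma and lung samples quantified by LC-MS/MS, dosing as a suspension in aqueous carboxymethylcellulose with Tween 80.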 To be noted: CD-1 mice, oral, 40 mg/kg; for half-life / Kp / Cmax: mouse; for half-life / Cmax: in vivo, plasma; for half-life: read-out: t½ (h) plasma (converted); for Kp: lung/plasma, read-out: AUC ratio (lung/plasma).
Data set [6] concerns M. tuberculosis Erdman. Nature of the data set: In vivo mouse chronic TB infection assay. The following applies: mice, oral 100 mg/kg, treatment beginning ~70 days after infection. Further details: species or system Mycobacterium tuberculosis.

Values after ≈ are worked out from the molar mass of the structure shown. Some results are limits rather than exact numbers.

In general, solubility refers to the dissolved amount per volume that the medium holds. A word on the melting point: it is the temperature, or range, at which the solid turns liquid. The Cmax is the maximum level reached in the sampled fluid or tissue. As a reminder, the Solubility is the dissolved amount per volume that the medium holds. A low value points to little dissolved substance.

`O=[N+]([O-])c1cn2c(n1)OC[C@@H](OCc1ccc(-c3ccc(OC(F)(F)F)cc3)cc1F)C2` [Compound 12, (6S)-6-{[3-Fluoro-4′-(trifluoromethoxy)[1,1′-biphenyl]-4-yl]methoxy}-2-nitro-6,7-dihydro-5H-imidazo[2,1-b][1,3]oxazine] yielded a melting point of 160 to 162 °C. The molecule further registered a solubility at 15 min in data set [1] of 1.4 µg/mL (≈ 3.09 µM). For the same molecule, the “Microsomes (% remaining, 1 h) Human” value in data set [2] is 93%. The “Microsomes (% remaining, 1 h) Mouse” value in data set [3] was found to be 85%. In the data set with M. tuberculosis Erdman [4], the “In vivo efficacy vs PA-824, Acute” value is recorded as 33. Besides, in data set [5], the AUC lung is 549 µg·h/mL, the half-life was 22 h and the Kp is 2.7.

Take `O=[N+]([O-])c1cn2c(n1)OC[C@@H](OCc1ccc(OC(F)(F)F)cc1)C2` [PA-824, reference compound]: the “Microsomes (% remaining, 1 h) Human” value in data set [2] came to 82%. Besides, in the data set on M. tuberculosis Erdman [4] (oral 100 mg/kg, lungs, vs vehicle, 'up to'), the “log reductions in CFU (acute assay)” value is on record as 2.5-3 log. The “log reduction in CFU (chronic assay)” value with M. tuberculosis Erdman [6] is on record as around 2 log. In data set [5], the AUC lung stood at 296 µg·h/mL, the Cmax stood at 5500 ng/mL, the half-life is 4.2 h and the Kp was found to be 3.8.

Turning to `Cn1nc(-c2ccc(OC(F)(F)F)cc2)cc1CO[C@@H]1COc2nc([N+](=O)[O-])cn2C1` [Compound 11, (6S)-6-({1-Methyl-3-[4-(trifluoromethoxy)phenyl]-1H-pyrazol-5-yl}methoxy)-2-nitro-6,7-dihydro-5H-imidazo[2,1-b][1,3]oxazine], the solubility at 15 min in data set [1] came to 5.3 µg/mL (≈ 12.1 µM). Moreover, in data set [2], the “Microsomes (% remaining, 1 h) Human” value came out at 86%. Moreover, in data set [3], the “Microsomes (% remaining, 1 h) Mouse” value came to 81%. Further, the “In vivo efficacy vs PA-824, Chronic” value in the data set on M. tuberculosis Erdman [6] (ratio of average lung CFU reduction to that with PA-824) is reported as 0.9. In data set [5], the AUC lung was determined as 92.4 µg·h/mL, the Cmax was determined as 1660 ng/mL, the half-life was 6.6 h and the Kp was determined as 4.7.

`O=[N+]([O-])c1cn2c(n1)OC[C@@H](OCc1ccc(-c3ccc(OC(F)(F)F)c(F)c3)cc1)C2` [Compound 2, (6S)-6-{[3′-Fluoro-4′-(trifluoromethoxy)[1,1′-biphenyl]-4-yl]methoxy}-2-nitro-6,7-dihydro-5H-imidazo[2,1-b][1,3]oxazine] displayed a melting point of 169 to 171 °C. In addition, the solubility at 15 min in data set [1] was determined as 0.1 µg/mL (≈ 0.221 µM). Further, the “Microsomes (% remaining, 1 h) Human” value in data set [2] is listed as 93%. In data set [3], the “Microsomes (% remaining, 1 h) Mouse” value came to 86%. Further, in data set [5], the AUC lung was above 513 µg·h/mL, the peak concentration (Cmax) turned out to be 17100 ng/mL and the half-life was 20.5 h.

Consider `O=[N+]([O-])c1cn2c(n1)OC[C@@H](OCc1ccc(-c3ccc(OC(F)(F)F)cc3)nn1)C2` [Compound 24, (6S)-2-Nitro-6-({6-[4-(trifluoromethoxy)phenyl]-3-pyridazinyl}methoxy)-6,7-dihydro-5H-imidazo[2,1-b][1,3]oxazine], for which the melting point is 194 °C (dec.). Also, in data set [1], the Solubility stood at 6.1 µg/mL (≈ 13.9 µM). Besides, the “Microsomes (% remaining, 1 h) Human” value in data set [2] was found to be 94%. Further, the “Microsomes (% remaining, 1 h) Mouse” value in data set [3] came to 92%. In data set [5], this molecule displayed an AUC lung of 93.9 µg·h/mL and a Cmax of 3560 ng/mL.

`O=C(O[C@@H]1COc2nc([N+](=O)[O-])cn2C1)N1CCN(c2ccc(OC(F)(F)F)cc2)CC1` [Compound 20, (6S)-2-Nitro-6,7-dihydro-5H-imidazo[2,1-b][1,3]oxazin-6-yl 4-[4-(trifluoromethoxy)phenyl]-1-piperazinecarboxylate]: the melting point fell in the range of 166 to 168 °C. Besides, the concentration in solution in data set [1] (solubility at 15 min) came to 17 µg/mL (≈ 37.2 µM). In addition, the “Microsomes (% remaining, 1 h) Human” value in data set [2] was 82%. The “Microsomes (% remaining, 1 h) Mouse” value in data set [3] is listed as 85%. Further, in data set [5], the AUC lung was found to be 169 µg·h/mL.

Molecule `O=[N+]([O-])c1cn2c(n1)OC[C@@H](OCC#Cc1ccc(-c3ccc(OC(F)(F)F)cc3)cc1)C2` [Compound 30, (6S)-2-Nitro-6-({3-[4′-(trifluoromethoxy)[1,1′-biphenyl]-4-yl]-2-propynyl}oxy)-6,7-dihydro-5H-imidazo[2,1-b][1,3]oxazine] showed a melting point of 192 to 194 °C. Further, the Solubility in data set [1] came to 0.07 µg/mL (≈ 0.152 µM). Further, in data set [2], the “Microsomes (% remaining, 1 h) Human” value is recorded as 93%. Further, the “Microsomes (% remaining, 1 h) Mouse” value in data set [3] was 85%. The “In vivo efficacy vs PA-824, Acute” value in the data set with M. tuberculosis Erdman [4] turned out to be 89. Moreover, in data set [5], the AUC lung stood at 13.6 µg·h/mL and the Kp came out at 1.4.

As for `O=[N+]([O-])c1cn2c(n1)OC[C@@H](OCc1ccc(-c3ccc(OC(F)(F)F)c(F)c3)cn1)C2` [Compound 22, (6S)-6-({5-[3-Fluoro-4-(trifluoromethoxy)phenyl]-2-pyridinyl}methoxy)-2-nitro-6,7-dihydro-5H-imidazo[2,1-b][1,3]oxazine], the melting point lay in the range of 182 to 184 °C. Further, in data set [1], the Solubility was 30 µg/mL (≈ 66 µM). In addition, the “Microsomes (% remaining, 1 h) Human” value in data set [2] is reported as 97%. The “Microsomes (% remaining, 1 h) Mouse” value in data set [3] was found to be 86%. Besides, in data set [5], the AUC lung turned out to be 155 µg·h/mL and the Kp came out at 1.1.

On to `O=[N+]([O-])c1cn2c(n1)OC[C@@H](OCc1ccc(-c3ccc(OC(F)(F)F)c(Cl)c3)nc1)C2` [Compound 28, (6S)-6-({6-[3-Chloro-4-(trifluoromethoxy)phenyl]-3-pyridinyl}methoxy)-2-nitro-6,7-dihydro-5H-imidazo[2,1-b][1,3]oxazine], for which the melting point was in the range of 169 to 171 °C. The molecule also displayed a Solubility in data set [1] of 0.18 µg/mL (≈ 0.382 µM). The “Microsomes (% remaining, 1 h) Human” value in data set [2] is 87%. Besides, the “Microsomes (% remaining, 1 h) Mouse” value in data set [3] turned out to be 77%. In data set [5], the AUC lung is 284 µg·h/mL, the peak level (Cmax) was 2890 ng/mL and the half-life is 21.7 h.

The values above are taken from US9198913B2, “Nitroimidazooxazines and their uses in anti-tubercular therapy” (priority 2009, dated 2015).
